Measured values published in ChEMBL document CHEMBL5126523, “Recent advances in DDR (DNA damage response) inhibitors for cancer therapy” (Eur J Med Chem, 2022).
Values belong to the compound of their own block, whether it stands above or below them.

Experiments:
[1] = Oral bioavailability in BALB/c mouse at 2 mg/kg by LC-MS/MS analysis; format: ADME, organism-based; settings: in vivo
[2] = biological target: T1, Poly [ADP-ribose] polymerase 1 (Homo sapiens, UniProt P09874); test: Inhibition of PARP1 (unknown origin) by ELISA
T1 sequence (P09874 whole entry): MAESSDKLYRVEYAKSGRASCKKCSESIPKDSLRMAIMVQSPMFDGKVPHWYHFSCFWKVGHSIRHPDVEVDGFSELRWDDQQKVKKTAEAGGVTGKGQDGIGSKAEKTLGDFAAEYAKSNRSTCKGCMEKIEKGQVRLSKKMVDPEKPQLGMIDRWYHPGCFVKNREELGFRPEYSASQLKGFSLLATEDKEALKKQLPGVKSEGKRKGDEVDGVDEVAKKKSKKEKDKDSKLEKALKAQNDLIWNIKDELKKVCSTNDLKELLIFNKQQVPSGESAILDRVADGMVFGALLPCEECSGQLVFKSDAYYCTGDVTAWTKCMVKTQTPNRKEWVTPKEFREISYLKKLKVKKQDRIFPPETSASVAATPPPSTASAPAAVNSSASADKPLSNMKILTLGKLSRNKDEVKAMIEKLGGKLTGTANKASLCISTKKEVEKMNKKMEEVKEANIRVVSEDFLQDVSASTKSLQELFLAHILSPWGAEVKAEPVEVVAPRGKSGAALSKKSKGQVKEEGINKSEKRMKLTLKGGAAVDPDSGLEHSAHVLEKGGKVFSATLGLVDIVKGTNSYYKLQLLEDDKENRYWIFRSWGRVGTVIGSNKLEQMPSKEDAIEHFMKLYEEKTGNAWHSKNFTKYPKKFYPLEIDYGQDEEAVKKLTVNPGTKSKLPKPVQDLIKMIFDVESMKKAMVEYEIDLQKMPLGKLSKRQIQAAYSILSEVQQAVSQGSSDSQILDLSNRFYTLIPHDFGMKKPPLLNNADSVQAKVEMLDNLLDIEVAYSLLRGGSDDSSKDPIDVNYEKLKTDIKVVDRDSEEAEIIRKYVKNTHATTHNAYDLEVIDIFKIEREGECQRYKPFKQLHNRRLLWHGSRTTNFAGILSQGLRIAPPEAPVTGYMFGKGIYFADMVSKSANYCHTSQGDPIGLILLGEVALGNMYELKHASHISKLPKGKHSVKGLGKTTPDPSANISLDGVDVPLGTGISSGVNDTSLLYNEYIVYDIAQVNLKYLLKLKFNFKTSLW

LoVo = test: Inhibition of cell growth in human LoVo cells assessed as measuring ATP content incubated for 3 days by Cell Titer Glo assay; format: functional, cell-based; settings: 72 h
ATR/ATRIP [3] = biological target: T2, ATR/ATRIP (Homo sapiens, UniProt Q13535); test: Inhibition of full-length human recombinant FLAG-tagged ATR/c-Myc-tagged ATRIP using p53 as substrate incubated for 30 mins in presence of ATP by HTRF assay; format: protein-complex assay
[4] = biological target: Poly [ADP-ribose] polymerase tankyrase-1 (Homo sapiens, UniProt O95271); test: Inhibition of tankyrase 1 (unknown origin) incubated for 1 hr by chemiluminescence assay
[5] = biological target: T1, Poly [ADP-ribose] polymerase 1; test: Inhibition of PARP1 (unknown origin) incubated for 1 hr by chemiluminescence assay
[6] = biological target: Poly [ADP-ribose] polymerase tankyrase-2 (Homo sapiens, UniProt Q9H2K2); test: Inhibition of tankyrase 2 (unknown origin) incubated for 1 hr by chemiluminescence based assay
[7] = AUC (0 to last) in ICR mouse at 10 mg/kg, po measured for 5 to 1440 mins; format: ADME, organism-based; parameters: time 5-1440 min, dose 10 mg/kg, route po; settings: in vivo
[8] = AUC (0 to last) in ICR mouse at 3 mg/kg, iv measured for 2 to 1440 mins; format: ADME, organism-based; parameters: time 2-1440 min, dose 3 mg/kg, route iv; settings: in vivo
[9] = Half life in ICR mouse at 3 mg/kg, iv measured for 2 to 1440 mins; format: ADME, organism-based; settings: in vivo, time 2-1440 min
[10] = Half life in ICR mouse at 10 mg/kg, po measured for 5 to 1440 mins; format: ADME, organism-based; settings: in vivo, time 5-1440 min
[11] = Cmax in ICR mouse at 10 mg/kg, po measured for 5 to 1440 mins; format: ADME, organism-based; parameters: time upper 1440 min, dose 10 mg/kg, time lower 5 min, route po; settings: in vivo
[12] = Oral bioavailability in ICR mouse at 10 mg/kg measured for 5 to 1440 mins; format: ADME, organism-based; settings: in vivo, time 5-1440 min
[13] = Tmax in ICR mouse at 3 mg/kg, iv measured for 2 to 1440 mins; format: ADME, organism-based; settings: in vivo, time 2-1440 min
[14] = Tmax in ICR mouse at 10 mg/kg, po measured for 5 to 1440 mins; format: ADME, organism-based; settings: in vivo, time 5-1440 min
Wee1-like protein kinase [15] = biological target: T3, Wee1-like protein kinase (Homo sapiens, UniProt P30291); test: Inhibition of N-terminal GST-tagged wild-type WEE1 (215 to 646 residues) (unknown origin) expressed in Sf21 insect cells incubated for 60 mins in presence of ATP by ELISA
[16] = Cmax in ICR mouse at 3 mg/kg, iv measured for 2 to 1440 mins; format: ADME, organism-based; parameters: time upper 1440 min, dose 3 mg/kg, time lower 2 min, route iv; settings: in vivo
HCT-116 [17] = test: Inhibition of cell proliferation in human HCT-116 incubated for 48 hrs by Cell Titer Glo assay; format: functional, cell-based; settings: HCT-116, 48 h
NCI-H23 = test: Inhibition of cell proliferation in human NCI-H23 incubated for 48 hrs by Cell Titer Glo assay; format: functional, cell-based; settings: NCI-H23, 48 h
ATR/ATRIP [18] = biological target: T2, ATR/ATRIP; test: Inhibition of full-length recombinant human ATR/ATRIP using p53 as substrate incubated for 30 mins in presence of ATP by HTRF assay; format: protein-complex assay
NCI-H1299 = test: Inhibition of cell proliferation in human NCI-H1299 cells incubated for 3 days by MTT assay; format: functional, cell-based; settings: NCI-H1299, 72 h
[19] = biological target: T4, DNA-dependent protein kinase catalytic subunit (Homo sapiens, UniProt P78527); test: Inhibition of DNA-PK (unknown origin) incubated for 3 hrs by ADP-Glo kinase assay
T4 sequence (P78527 whole entry): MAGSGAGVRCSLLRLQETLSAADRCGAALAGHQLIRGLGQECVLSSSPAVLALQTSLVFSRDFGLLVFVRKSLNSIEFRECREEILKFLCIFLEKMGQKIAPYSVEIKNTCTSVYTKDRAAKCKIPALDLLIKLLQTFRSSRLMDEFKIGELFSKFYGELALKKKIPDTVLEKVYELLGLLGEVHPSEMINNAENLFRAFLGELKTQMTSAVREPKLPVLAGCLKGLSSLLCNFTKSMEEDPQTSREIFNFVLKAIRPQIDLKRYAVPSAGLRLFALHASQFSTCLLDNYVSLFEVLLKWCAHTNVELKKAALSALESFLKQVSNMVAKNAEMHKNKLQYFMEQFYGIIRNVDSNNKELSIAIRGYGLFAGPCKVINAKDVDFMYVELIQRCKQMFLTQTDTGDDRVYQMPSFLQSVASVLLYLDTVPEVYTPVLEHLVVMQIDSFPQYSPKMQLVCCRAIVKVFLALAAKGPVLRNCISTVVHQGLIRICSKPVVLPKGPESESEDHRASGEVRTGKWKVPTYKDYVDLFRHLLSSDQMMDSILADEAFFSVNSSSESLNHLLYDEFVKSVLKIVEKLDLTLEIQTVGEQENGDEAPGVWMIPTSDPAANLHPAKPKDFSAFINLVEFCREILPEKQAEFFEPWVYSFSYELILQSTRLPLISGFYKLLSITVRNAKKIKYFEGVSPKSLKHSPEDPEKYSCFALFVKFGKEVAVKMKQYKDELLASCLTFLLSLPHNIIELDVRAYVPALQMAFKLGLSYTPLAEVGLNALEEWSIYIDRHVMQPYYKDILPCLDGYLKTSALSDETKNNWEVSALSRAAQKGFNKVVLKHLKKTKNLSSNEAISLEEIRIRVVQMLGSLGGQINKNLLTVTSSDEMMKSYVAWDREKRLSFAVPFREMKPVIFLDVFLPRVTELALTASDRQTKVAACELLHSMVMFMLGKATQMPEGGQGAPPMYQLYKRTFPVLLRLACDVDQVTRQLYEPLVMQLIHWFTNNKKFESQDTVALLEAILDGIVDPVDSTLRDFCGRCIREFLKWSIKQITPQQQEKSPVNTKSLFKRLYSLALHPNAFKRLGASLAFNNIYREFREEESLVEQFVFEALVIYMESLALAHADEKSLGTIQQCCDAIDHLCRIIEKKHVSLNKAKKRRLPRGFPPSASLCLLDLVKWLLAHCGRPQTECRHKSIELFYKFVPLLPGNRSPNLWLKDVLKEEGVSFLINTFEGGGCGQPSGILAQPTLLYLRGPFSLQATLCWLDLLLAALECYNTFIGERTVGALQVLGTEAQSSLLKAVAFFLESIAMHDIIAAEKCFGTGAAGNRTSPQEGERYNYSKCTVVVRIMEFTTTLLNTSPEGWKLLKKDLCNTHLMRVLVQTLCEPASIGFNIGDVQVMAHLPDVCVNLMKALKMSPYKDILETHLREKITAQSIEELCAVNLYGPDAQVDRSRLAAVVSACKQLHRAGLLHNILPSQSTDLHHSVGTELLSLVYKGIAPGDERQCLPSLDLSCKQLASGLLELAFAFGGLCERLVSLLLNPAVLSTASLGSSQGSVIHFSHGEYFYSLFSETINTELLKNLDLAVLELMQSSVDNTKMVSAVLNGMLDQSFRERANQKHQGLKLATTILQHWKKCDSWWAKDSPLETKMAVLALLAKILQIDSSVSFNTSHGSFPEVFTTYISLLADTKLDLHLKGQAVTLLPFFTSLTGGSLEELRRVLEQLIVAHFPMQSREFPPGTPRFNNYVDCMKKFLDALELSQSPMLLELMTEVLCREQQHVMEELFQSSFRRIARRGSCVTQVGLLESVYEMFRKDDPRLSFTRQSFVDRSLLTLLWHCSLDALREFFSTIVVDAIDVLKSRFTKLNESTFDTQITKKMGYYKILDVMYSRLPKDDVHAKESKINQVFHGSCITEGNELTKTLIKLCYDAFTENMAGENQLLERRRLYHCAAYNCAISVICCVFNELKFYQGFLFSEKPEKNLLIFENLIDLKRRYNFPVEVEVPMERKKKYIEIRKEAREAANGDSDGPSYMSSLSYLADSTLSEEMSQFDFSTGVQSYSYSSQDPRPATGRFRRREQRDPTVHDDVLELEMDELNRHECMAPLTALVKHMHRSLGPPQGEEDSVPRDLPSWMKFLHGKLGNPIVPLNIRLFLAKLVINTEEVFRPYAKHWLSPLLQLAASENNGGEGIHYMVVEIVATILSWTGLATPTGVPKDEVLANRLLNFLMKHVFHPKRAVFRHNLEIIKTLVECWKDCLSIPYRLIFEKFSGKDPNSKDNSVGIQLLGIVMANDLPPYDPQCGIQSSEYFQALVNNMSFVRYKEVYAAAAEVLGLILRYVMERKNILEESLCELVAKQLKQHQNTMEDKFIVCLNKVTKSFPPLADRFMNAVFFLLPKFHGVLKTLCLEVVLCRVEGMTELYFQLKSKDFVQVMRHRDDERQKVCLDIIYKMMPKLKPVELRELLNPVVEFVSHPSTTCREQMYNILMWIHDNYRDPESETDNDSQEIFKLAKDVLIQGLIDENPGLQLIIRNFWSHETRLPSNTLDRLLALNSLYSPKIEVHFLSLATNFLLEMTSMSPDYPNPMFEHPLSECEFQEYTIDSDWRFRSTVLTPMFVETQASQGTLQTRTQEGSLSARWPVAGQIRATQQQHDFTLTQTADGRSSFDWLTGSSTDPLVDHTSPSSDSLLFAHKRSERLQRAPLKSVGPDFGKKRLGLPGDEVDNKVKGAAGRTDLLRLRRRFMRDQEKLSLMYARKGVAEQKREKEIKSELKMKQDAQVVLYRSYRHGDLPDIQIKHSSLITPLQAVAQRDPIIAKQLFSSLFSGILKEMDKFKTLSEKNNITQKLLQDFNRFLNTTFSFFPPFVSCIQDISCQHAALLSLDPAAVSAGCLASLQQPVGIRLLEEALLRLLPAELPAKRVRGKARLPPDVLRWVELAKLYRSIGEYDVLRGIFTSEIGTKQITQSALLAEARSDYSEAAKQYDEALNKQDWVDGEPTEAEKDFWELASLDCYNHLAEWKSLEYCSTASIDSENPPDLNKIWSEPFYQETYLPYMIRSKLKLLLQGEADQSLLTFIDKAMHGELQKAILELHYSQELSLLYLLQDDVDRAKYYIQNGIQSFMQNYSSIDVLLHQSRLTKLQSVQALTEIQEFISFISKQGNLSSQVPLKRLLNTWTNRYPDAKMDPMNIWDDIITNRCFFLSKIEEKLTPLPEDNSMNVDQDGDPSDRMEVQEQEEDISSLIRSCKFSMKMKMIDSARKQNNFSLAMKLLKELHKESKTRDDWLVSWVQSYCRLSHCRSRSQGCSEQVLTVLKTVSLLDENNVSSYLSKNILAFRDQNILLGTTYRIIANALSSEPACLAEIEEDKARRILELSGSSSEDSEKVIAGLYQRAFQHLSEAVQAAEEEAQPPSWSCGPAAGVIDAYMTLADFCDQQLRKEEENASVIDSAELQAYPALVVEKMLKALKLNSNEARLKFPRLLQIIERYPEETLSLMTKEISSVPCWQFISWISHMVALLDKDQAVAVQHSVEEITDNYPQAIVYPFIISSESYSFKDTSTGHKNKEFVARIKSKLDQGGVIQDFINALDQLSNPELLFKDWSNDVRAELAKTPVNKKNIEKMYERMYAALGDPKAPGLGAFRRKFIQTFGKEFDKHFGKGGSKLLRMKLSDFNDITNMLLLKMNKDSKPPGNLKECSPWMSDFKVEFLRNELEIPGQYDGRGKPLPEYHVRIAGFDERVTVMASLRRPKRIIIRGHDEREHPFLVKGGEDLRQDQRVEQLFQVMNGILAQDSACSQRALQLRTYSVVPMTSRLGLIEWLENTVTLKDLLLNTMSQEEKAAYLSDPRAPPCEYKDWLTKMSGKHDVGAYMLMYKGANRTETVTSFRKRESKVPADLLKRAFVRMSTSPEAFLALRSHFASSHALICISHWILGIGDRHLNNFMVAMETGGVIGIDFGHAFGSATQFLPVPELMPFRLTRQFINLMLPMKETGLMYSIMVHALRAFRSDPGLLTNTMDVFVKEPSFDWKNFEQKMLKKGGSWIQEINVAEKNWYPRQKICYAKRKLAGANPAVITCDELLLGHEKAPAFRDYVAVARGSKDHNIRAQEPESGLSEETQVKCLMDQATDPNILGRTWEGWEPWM

[20] = biological target: T5, Serine-protein kinase ATM (Homo sapiens, UniProt Q13315); test: Inhibition of ATM in human MCF7 cells […] incubated for 1 hr by Cell Western assay; format: cell-based
[21] = biological target: T4, DNA-dependent protein kinase catalytic subunit; test: Inhibition of full-length human DNA-PK expressed in baculovirus expression system using p53 as substrate incubated for 1 hr in presence of ATP by ELISA
MDA-MB-231 = test: Inhibition of cell proliferation in human MDA-MB-231 cells incubated for 72 hrs by SRB assay; format: functional, cell-based; settings: MDA-MB-231, 72 h
HCC1937 = test: Inhibition of cell proliferation in human HCC1937 cells incubated for 72 hrs by SRB assay; format: functional, cell-based; settings: HCC1937, 72 h
HCT-116 [22] = test: Inhibition of cell proliferation in human HCT-116 cells incubated for 72 hrs by SRB assay; format: functional, cell-based; settings: HCT-116, 72 h
[23] = biological target: T4, DNA-dependent protein kinase catalytic subunit; test: Inhibition of DNA-PK (unknown origin) assessed as inhibition constant using Glu-Pro-Pro-Leu-Ser-Gln-Glu-Ala-Phe-Ala-Asp-Leu-Trp-Lys-Lys-Lys peptide as substrate incubated for 45 mins in presence of [33P]-ATP by scintillation counting method
[24] = biological target: T1, Poly [ADP-ribose] polymerase 1; test: Inhibition of N-terminal GST-tagged recombinant human PARP1 (2 to 1014 residues) expressed in Sf9 insect cells incubated for 1 hr by colorimetric assay
Homo sapiens [25] = species: Homo sapiens; test: Selectivity index, ratio of IC50 for ATM (unknown origin) to IC50 for mTOR (unknown origin)
Homo sapiens [26] = species: Homo sapiens; test: Selectivity index, ratio of IC50 for ATM (unknown origin) to IC50 for ATR (unknown origin)
Homo sapiens [27] = species: Homo sapiens; test: Selectivity index, ratio of IC50 for ATM (unknown origin) to IC50 for PI3K-alpha (unknown origin)
[28] = biological target: Phosphatidylinositol 4,5-bisphosphate 3-kinase catalytic subunit alpha isoform (Homo sapiens, UniProt P42336); test: Inhibition of PI3K-alpha (unknown origin)
[29] = biological target: Serine/threonine-protein kinase mTOR (Homo sapiens, UniProt P42345); test: Inhibition of mTOR (unknown origin)
[30] = biological target: T5, Serine-protein kinase ATM; test: Inhibition of ATM (unknown origin)
[31] = biological target: Serine/threonine-protein kinase ATR (Homo sapiens, UniProt Q13535); test: Inhibition of ATR (unknown origin)
DU-145 = test: Inhibition of cell proliferation in human DU-145 cells incubated for 4 days by MTT assay; format: functional, cell-based; settings: DU-145, 96 h
NCI-H460 = test: Inhibition of cell proliferation in human NCI-H460 cells incubated for 4 days by MTT assay; format: functional, cell-based; settings: NCI-H460, 96 h
ATR/ATRIP [32] = biological target: T2, ATR/ATRIP; test: Inhibition of full-length human recombinant FLAG-tagged ATR/c-Myc-tagged ATRIP using p53 as substrate incubated for 30 mins in presence of ATP by fluorescence based assay; format: protein-complex assay
Wee1-like protein kinase [33] = biological target: T3, Wee1-like protein kinase; test: Displacement of tracer 178 from WEE1 (unknown origin) incubated for 1 hr by Lantha Screen assay

bioavailability [1]: 96.4%
SMILES: Cc1cc2ncnn2cc1Nc1ncc2c(n1)n(N1CCOCC1)c(=O)n2C

IC50 [2]: < 200 nM
SMILES: CC(C)(C)CC(=O)C(=O)N1CCN(C(=O)c2cc(Cc3n[nH]c(=O)c4c3CCCC4)ccc2F)CC1

IC50 (LoVo): 1.36 nM
IC50 (ATR/ATRIP [3]): 62.1 nM
SMILES: C[C@@H]1COCCN1c1nc(-c2c(N)ncc3[nH]ccc23)nc2c1OC1CC2(S(C)(=O)=O)C1

bioavailability [1]: 114%
SMILES: Cc1cc2ncnn2cc1Nc1ncc2c(n1)C1(CCC(C)(C)CC1)C(=O)N2C

IC50 [4]: 34.8 nM
IC50 [5]: 0.59 nM
IC50 [6]: 6.45 nM
SMILES: COc1ccccc1NC(=O)c1ccc(NC(=O)N2CCN(C(=O)c3cc(Cc4n[nH]c(=O)c5ccccc45)ccc3F)CC2)cc1

AUC(0-t) [7]: 409 ng·h/mL
AUC(0-t) [8]: 191 ng·h/mL
half-life [9]: 0.92 h
half-life [10]: 1.32 h
Cmax [11]: 121 nM
bioavailability [12]: 64.3%
Tmax [13]: 1.8 min
Tmax [14]: 1.33 h
IC50 (Wee1-like protein kinase [15]): 1.83 nM
Cmax [16]: 241 nM
SMILES: C=CCn1c(=O)c2cnc(Nc3ccc(N4C[C@H]5CN(C)C[C@H]5C4)cc3)nc2n1-c1ccc(C(C)(C)O)cn1

IC50 (HCT-116 [17]): < 10000 nM
IC50 (NCI-H23): < 10000 nM
IC50 (ATR/ATRIP [18]): < 500 nM
SMILES: CNc1nc2ccc(F)cc2n1-c1nc(-c2ccnn2C)cc(N2CCOC[C@H]2C)n1

IC50 (NCI-H1299): 154 nM
SMILES: CN1CCN(c2ccc(Nc3cc4c(cn3)C(=O)N(c3ccccc3Cl)C3=NCCN34)cc2)CC1

IC50 [19]: 165 nM
SMILES: COc1ccc(Nc2cc(-c3ncnc4cc(N5CCOCC5)ccc34)c(F)cc2Cl)nn1

IC50 [20]: 1 nM
IC50 [21]: 1 nM
SMILES: CCc1ncc(S(=O)(=O)Nc2cc(-c3ccc4ncc5c(c4c3)C3(CCC3)C(=O)N5C)cnc2OCCCN(C)C)s1

IC50 (MDA-MB-231): 443 nM
IC50 (HCC1937): 81 nM
IC50 (HCT-116 [22]): 211 nM
SMILES: Nc1ncc(-c2nc3c(c(N4CCOCC4)n2)CCN(C(=O)c2cc(Cc4n[nH]c(=O)c5ccccc45)ccc2F)C3)cn1

Ki [23]: < 100 nM
SMILES: O=c1[nH]c(N[C@H]2CC[C@@H](Oc3cc(N4CCOCC4)cc4nccnc34)CC2)ncc1F

IC50 [24]: < 100 nM
SMILES: NC(=O)c1cccc2cn(-c3ccc([C@]4(F)CCCNC4)cc3)nc12

IC50 (LoVo): 20.3 nM
IC50 (ATR/ATRIP [3]): 104 nM
SMILES: C[C@@H]1COCCN1c1nc(-c2nncc3[nH]ccc23)nc2c1OC1CC2(S(C)(=O)=O)C1

Ratio IC50 (Homo sapiens [25]): > 1000
Ratio IC50 (Homo sapiens [26]): > 1000
Ratio IC50 (Homo sapiens [27]): > 1000
IC50 [28]: > 10000 nM
IC50 [29]: > 10000 nM
IC50 [30]: 3.98 nM
IC50 [31]: > 30000 nM
SMILES: CC(C)n1c(=O)n(C)c2cnc3ccc(-c4ccc(OCCCN(C)C)nc4)cc3c21

IC50 (DU-145): 1220 nM
IC50 (NCI-H460): 907 nM
IC50 (ATR/ATRIP [32]): 938 nM
SMILES: C[C@@H]1COCCN1c1cc(-c2ccnn2C)c2ncc(-c3ccn[nH]3)n2n1

IC50 [19]: 122 nM
SMILES: Cc1ncc(-c2cc(NC[C@H](C)c3cccc4c(C5=NCCN5)ccnc34)ncn2)cn1

IC50 (DU-145): 914 nM
IC50 (NCI-H460): 322 nM
IC50 (ATR/ATRIP [32]): 379 nM
SMILES: Cc1ccc(-c2cc(N3CCOC[C@H]3C)nn3c(-c4ccn[nH]4)cnc23)cn1

IC50 (Wee1-like protein kinase [33]): 4.78 nM
SMILES: C=CCn1c(=O)c2cnc(Nc3ccc4c(c3)OC[C@@H]3C[C@@H](N(C)C)CN43)nc2n1-c1ccc(C(C)(C)O)cn1
